Source: BindingDB's records for doi:10.1016/s0960-894x(00)00138-4 (Berlex Biosciences, 2000)

Target: Cationic trypsin (Bos taurus)
Assay: In vitro inhibition of bovine trypsin.

| Compound | Ki [nM] |
| --- | --- |
| CCOC(=O)c1cc2ccc(OC3CCN(C(C)=N)CC3)cc2n1Cc1ccc2ccc(C(=N)N)cc2c1 [1-(7-Carbamimidoyl-naphthalen-2-ylmethyl)-6-[1-(1-imino-ethyl)-piperidin-4-yloxy]-1H-indole-2-carboxylic acid ethyl ester] | 20 |
| CN(C)C(=O)COc1ccc2c3ccccc3n(Cc3ccc4ccc(C(=N)N)cc4c3)c2c1 [2-[9-(7-Carbamimidoyl-naphthalen-2-ylmethyl)-9H-carbazol-2-yloxy]-N,N-dimethyl-acetamide] | 90 |
| N=C(N)c1ccc(-n2ccc3ccc(NC(=O)c4cccc(C(=N)N)c4)cc32)cc1 [3-Carbamimidoyl-N-[1-(4-carbamimidoyl-phenyl)-1H-indol-6-yl]-benzamide] | 410 |
| N=C(N)c1ccc(-n2ccc3ccc(NCc4cccc(C(=N)N)c4)cc32)cc1 [3-{1-[4-amino(imino)methylphenyl]-1H-6-indolylaminomethyl}phenyl-iminomethanamine] | 1620 |
| N=C(N)c1ccc(-n2c3ccccc3c3ccc(OCc4ccc5ccc(C(=N)N)cc5c4)cc32)cc1 [7-[9-(4-Carbamimidoyl-phenyl)-9H-carbazol-2-yloxymethyl]-naphthalene-2-carboxamidine] | 510 |
| N=C(N)c1ccc(-n2ccc3ccc(NCc4ccc5ccc(C(=N)N)cc5c4)cc32)cc1 [7-{[1-(4-Carbamimidoyl-phenyl)-1H-indol-6-ylamino]-methyl}-naphthalene-2-carboxamidine] | 300 |
